Laboratory results published in patent US20150174209A1, “INSULIN-PRAMLINTIDE COMPOSITIONS AND METHODS FOR MAKING AND USING THEM” (AMYLIN PHARMACEUTICALS. LLC, priority 2012, published 2015).

Legend:
healthy subjects = assay: Glucose and C-peptide minimal models and minimal model of gastrointestinal absorption on aggregated Woerle data; parameters: species or system human
Description: The data published in Woerle et al. (December, 2008) Diabetes Care 31(12): 2325-2331, where a dual tracer approach was used in healthy subjects to estimate the rate of appearance of glucose during the meal and hepatic glucose production during placebo/pramlintide were used in an aggregated fashion (individual data not available, FIG. 13A). […] Subsequently, the minimal model of gastrointestinal absorption (FIG. 37) was used to quantify the changes of the rate of appearance of ingested glucose due to pramlintide. […] This finding was incorporated into the Healthy State Simulator and predictions were successfully tested against Woerle et al data FIG. 38. We also successfully tested the prediction of 2 h postprandial glucose of the Type 1 Diabetes Simulator (illustrated in FIG. 18) (incorporating the new kmax) against the data by Kovatchev B P, et al., Pramlintide reduces the risks associated with glucose variability in type 1 diabetes. Diabetes Technol Ther. 2008 October; 10(5):391-6. The new model was finally incorporated into our model predictive control algorithm and in silico experiment on the Type 1 diabetes.

type 1 diabetic subjects = assay: Identification of the gastro-intestinal tract (oral glucose absorption) model on Ra meal data of the Woerle T1D database; parameters: species or system human; details: 30 μg pramlintide s.c. with meal containing 50 g glucose, 15 type 1 diabetic subjects
Experimental: The database was made up of 15 type 1 diabetic subjects (8 men and 7 women, 37±2 years of age, body weight 76±3 kg) (this is a database for each individual patient participating in the study published in Woerle et al. (December, 2008) Diabetes Care 31(12): 2325-2331, in which pramlintide was given to TI patients and labeled glucose appearance from meal to blood was measured; Woerle reported the effect of pramlintide on gastric emptying and thus glucose appearance in the blood after a meal in patients with type 1 diabetes). “Ra meal data” means the “glucose rate of appearance (Ra) of ingested glucose”; “Ra meal” refers to measurement in response to a meal (ingested), versus after say an intraduodenal injection of glucose.
Subjects were studied on 2 occasions: hyperglycemia with (PRAM) and without (PBO) 30 μg of pramlintide (Amylin Pharmaceuticals, San Diego, Calif.), injected subcutaneously in the lower abdominal wall with the standardized meal containing 50 g of glucose. Over the initial 90 min of the postprandial period, blood samples were taken at 15 min intervals and thereafter at 30-min intervals until completion of the experiment at 330 min.
The model has been numerically identified on placebo Ra meal data using nonlinear weighted least-squares estimator. Identification on pramlintide Ra meal data have required the use of Bayesian estimator in order to achieve a precise estimates of model parameters.
Identification of the gastro-intestinal tract model on Woerle Ra meal data has provided individual parameters estimates for the 15 T1D subjects in presence or absence of pramlintide. Then individual variation for each parameter has been calculated as: […]
We reduced the standard deviations of the variation of the parameters to the 30% of their values due to the small number of subjects available:
Then 100 virtual parameters variations were generated from the distribution: […]

[1] = tested on: patients with type 1 diabetes mellitus; details: in vivo, sc; cited from earlier work
[2] = Chemical stability of pramlintide and human insulin co-formulated in SYMLIN placebo buffer pH 4.0 (RP-HPLC purity; FIGS. 35, 36); details: for stability in co-formulation: 25 degrees Centigrade, SYMLIN placebo buffer pH 4.0, 13 week study
Experimental: Purity was determined via RP-HPLC and is normalized to time=0 purity.

[3] = pH 2-3; 4C; cited from earlier work
[4] = cited from earlier work

Compound	effect on insulin sensitivity and beta-cell function (healthy subjects; glucose and C-peptide minimal models)	decrease of parameter kmax (maximum gastric emptying) (healthy subjects; minimal model of gastrointestinal absorption)	b (model parameter estimate, mean) (type 1 diabetic subjects)	c (model parameter estimate, mean) (type 1 diabetic subjects)	kabs (model parameter estimate, mean) (type 1 diabetic subjects)	kmin (model parameter estimate, mean) (type 1 diabetic subjects)	kmax (model parameter estimate, mean) (type 1 diabetic subjects; Bayesian estimator)	effect of mixing with short- or long-acting insulin in the same syringe on pharmacodynamics of glucose and pharmacokinetics of insulin or pramlintide [1]	purity loss during storage ([2]; 25 degrees C, insulin in co-formulations) [%]	stability in co-formulation [2]	stability in co-formulation ([2]; listed as insulin)	formation of monodesamido-(A21)-insulin [3]	absorption after subcutaneous injection [4] [min]	duration of action ([4]; subcutaneous injection) [h]
CC[C@H](C)[C@H](NC(=O)[C@@H]1CCCN1C(=O)CNC(=O)[C@H](Cc1ccccc1)NC(=O)[C@H](CC(N)=O)NC(=O)[C@H](CC(N)=O)NC(=O)[C@H](CO)NC(=O)[C@H](CO)NC(=O)[C@H](Cc1c[nH]cn1)NC(=O)[C@@H](NC(=O)[C@H](CC(C)C)NC(=O)[C@H](Cc1ccccc1)NC(=O)[C@H](CC(N)=O)NC(=O)[C@H](C)NC(=O)[C@H](CC(C)C)NC(=O)[C@H](CCCNC(=N)N)NC(=O)[C@H](CCC(N)=O)NC(=O)[C@@H](NC(=O)[C@H](C)NC(=O)[C@@H]1CSSC[C@H](NC(=O)[C@@H](N)CCCCN)C(=O)N[C@@H](CC(N)=O)C(=O)N[C@@H]([C@@H](C)O)C(=O)N[C@@H](C)C(=O)N[C@@H]([C@@H](C)O)C(=O)N1)[C@@H](C)O)C(C)C)C(=O)N[C@@H](CC(C)C)C(=O)N1CCC[C@H]1C(=O)N1CCC[C@H]1C(=O)N[C@H](C(=O)N[C@@H](CC(N)=O)C(=O)N[C@H](C(=O)NCC(=O)N[C@@H](CO)C(=O)N[C@@H](CC(N)=O)C(=O)N[C@H](C(=O)N[C@@H](Cc1ccc(O)cc1)C(N)=O)[C@@H](C)O)C(C)C)[C@@H](C)O [pramlintide]	no effect	⅔	0.985	0.537	0.020	0.005	0.041	did not affect	–	–	–	–	–	–
human insulin: regular human hormone with 21 amino acid A chain (SEQ ID NO:2) and 30 amino acid B chain (SEQ ID NO:3)	–	–	–	–	–	–	–	–	40	rapidly degrades	unacceptable degradation	1-2 % per month	15 to 60	5 to 9
